# Experimental data taken from US20150231167A1, “TREATMENT OF HEMATOLOGICAL NEOPLASMS” (THOMAS JEFFERSON UNIVERSITY, priority 2012, published 2015).
# Key:
# Stat5a = biological target: T1, Stat5a (Homo sapiens, UniProt P42229); assay: Stat5a dimerization, co-immunoprecipitation of FLAG- and MYC-tagged Stat5a in PC-3 cells; assay type: cell-based; conditions: pre-treated 2 h, hPrl 10 nM 30 minutes
# T1 construct: expressed in transfected cells; host or cells: PC-3
# T1 sequence (P42229 1-794): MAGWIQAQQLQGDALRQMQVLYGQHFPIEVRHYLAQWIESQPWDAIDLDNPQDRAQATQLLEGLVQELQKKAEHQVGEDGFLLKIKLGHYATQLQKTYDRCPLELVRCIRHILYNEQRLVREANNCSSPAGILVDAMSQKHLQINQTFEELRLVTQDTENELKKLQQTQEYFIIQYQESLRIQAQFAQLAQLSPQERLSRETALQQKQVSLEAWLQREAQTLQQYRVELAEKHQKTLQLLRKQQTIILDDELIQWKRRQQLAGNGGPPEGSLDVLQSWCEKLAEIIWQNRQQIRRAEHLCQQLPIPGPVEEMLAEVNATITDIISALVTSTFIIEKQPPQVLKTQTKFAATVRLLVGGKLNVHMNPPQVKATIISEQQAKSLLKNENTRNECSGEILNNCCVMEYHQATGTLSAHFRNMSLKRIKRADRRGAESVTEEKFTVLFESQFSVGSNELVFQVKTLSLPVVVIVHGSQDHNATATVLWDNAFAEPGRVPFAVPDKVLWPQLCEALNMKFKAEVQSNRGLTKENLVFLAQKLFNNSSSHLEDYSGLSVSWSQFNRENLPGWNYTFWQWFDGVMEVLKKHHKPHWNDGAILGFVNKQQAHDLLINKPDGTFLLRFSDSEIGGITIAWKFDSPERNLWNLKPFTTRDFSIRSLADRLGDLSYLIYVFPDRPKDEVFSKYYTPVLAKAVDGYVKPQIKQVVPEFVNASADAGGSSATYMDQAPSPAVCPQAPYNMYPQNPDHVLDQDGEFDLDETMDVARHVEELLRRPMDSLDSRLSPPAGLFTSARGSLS
# Protocol: FLAG-tagged Stat5a and MYC-tagged Stat5a were generated as follows by standard molecular biology cloning techniques. Plasmid pCMV3-FLAG-Stat5a, pCMV3-MYC-Stat5a and pPr1R were co-transfected using FuGENE6 (Roche) into PC-3 cells (2 μg of each plasmid per 1×10^7 cells). The cells were starved for 20 hours, pre-treated with N^6-benzyladenosine for 2 h, then stimulated with hPrl (10 nM) in RPMI 1640 without serum for 30 minutes. The cell lysates were immunoprecipitated with 25 μl anti-FLAG M2 […] affinity gel (2 μg/ml, Sigma), anti-MYC pAb (1 μg/ml, Upstate) or normal rabbit serum (NRS). The primary antibodies were used in the immunoblottings at the following concentrations: anti-FLAG pAb (1:1000; Stratagene), anti-MYC mAb (1:1000; Sigma), anti-Stat5a/b mAb (1:250) (Transduction Laboratories) detected by horseradish peroxidase-conjugated secondary antibodies.
# Lanes 1, 2, 4, 6 and 8 represent cells stimulated with human prolactin (Prl) for 30 minutes which induces dimerization of Stat5. Two hours prior to Prl-stimulation, the cells had been treated with DMSO (lanes 1-4), the control compound C5 (lanes 5 and 6) or N^6-benzyladenosine (lanes 7 and 8) to test whether the Stat5a/b-inhibitor compound, N6BA, would be able to inhibit dimerization of Stat5. […] It should be noted the drug effect in this study was not due to cell apoptosis induction, as the treatment time was only 2 hours.
# Stat5a/b [1] = assay: Western blot of Stat5a/b phosphorylation in K562 cells; assay type: cell-based, human
# Protocol: (§1) Exponentially growing K562 cells were treated with 5 μM N6BAP or pimozide for 3 h after which the cells were harvested. Pimozide is a Stat5 inhibitor in leukemia cells (Nelson et al., Blood 117:3421-3429, 2011). Cell pellets were solubilized in lysis buffer [10 mM Tris-HCl (pH 7.6), 5 mM EDTA, 50 mM sodium chloride, 30 mM sodium pyrophosphate, 50 mM sodium fluoride, 1 mM sodium orthovanadate, 1% Triton X-100, 1 mM phenylmethylsulfonyl fluoride, 5 μg/ml aprotinin, 1 μg/ml pepstatin A, and 2 μg/ml leupeptin], rotated end-over-end at 4° C. for 60 min, and insoluble material was pelleted at 12,000×g for 30 min at 4° C. The protein concentrations of clarified cell lysates were determined by simplified Bradford method (Bio-Rad Laboratories, Hercules, Calif.). Western blotting of the lysates was carried out using, as primary antibodies, the following antibodies at the following concentrations: anti-phosphotyrosine-Stat5a/b (Y694/Y699) mAb (1 μg/ml, Advantex BioReagents, Conroe, Tex.), anti-Stat5ab mAb (1:250; BD Biosciences, San Jose, Calif.), anti-human Abl mAb (Calbiochem) or anti-phosphotyrosine mAb (Millipore).
# (§2) Exponentially growing K562 cells were treated with N6BA for 3 h or 6 h after which the cells were harvested. […] The protein concentrations of clarified cell lysates were determined by simplified Bradford method (Bio-Rad Laboratories, Hercules, Calif.). […]
# K562 cells = assay: K562 cell viability, MTS metabolic activity assay; assay type: cell-based, human; conditions: 72 h at 3.1, 6.3, 12.5, 25 and 50 μM
# Protocol: (§3) Exponentially growing K562 cells were treated with N6BAP or the control compound C5 for 72 h at 3.1, 6.3, 12.5, 25 and 50 μM indicated concentrations. The cell viability was assessed by MTS ([…]) metabolic activity assay (CellTiter 96® AQueous Assay kit).
# as §3, with “K562 leukemia” for “K562”, “N6BA” for “N6BAP”, “μM” for “μM indicated”
# Stat5a/b [2] = assay: Western blot of Stat5a/b phosphorylation in parental KCL22 cells (KCL22S); assay type: cell-based, human; conditions: various concentrations, 6 h or 16 h
# Protocol: (§4) Exponentially growing KCL22 and KCL22R cells were treated with N6BAP at various concentrations for 6 h or 16 h after which the cells were harvested. Cell pellets were solubilized in lysis buffer [10 mM Tris-HCl (pH 7.6), 5 mM EDTA, 50 mM sodium chloride, 30 mM sodium pyrophosphate, 50 mM sodium fluoride, 1 mM sodium orthovanadate, 1% Triton X-100, 1 mM phenylmethylsulfonyl fluoride, 5 μg/ml aprotinin, 1 μg/ml pepstatin A, and 2 μg/ml leupeptin], rotated end-over-end at 4° C. for 60 min, and insoluble material was pelleted at 12,000×g for 30 min at 4° C. The protein concentrations of clarified cell lysates were determined by simplified Bradford method (Bio-Rad Laboratories, Hercules, Calif.). Western blotting of the lysates was carried out using, as primary antibodies, the following antibodies at the following concentrations: anti-phosphotyrosine-Stat5a/b (Y694/Y699) mAb (1 μg/ml, Advantex BioReagents, Conroe, Tex.), anti-Stat5ab mAb (1:250; BD Biosciences, San Jose, Calif.) or anti-actin pAb (Sigma). Anti-actin was included as a control.
# as §2
# Stat5a/b [3] = assay: Western blot of Stat5a/b phosphorylation in imatinib-resistant KCL22 cells (KCL22R); assay type: cell-based, human; conditions: various concentrations, 6 h or 16 h
# Protocol: as §4, §2
# Stat5 = Stat5 transcriptional activity, beta-casein promoter luciferase reporter gene assay in PC-3 cells; assay type: cell-based, human; conditions: pretreated 1 hour, 10 nM hPrl for 16 hours, firefly/Renilla luciferase
# Protocol: Cells of the human prostate cell line PC-3 were plated into 96-well plate at the density of 2×10^5 per well. After 24 hours of plating, cells were transiently co-transfected using FuGENE6 (Roche) with 0.25 μg of each of pStat5a or pStat5b, pPr1R (prolactin receptor) plasmids, 0.5 μg of pBeta-casein-luc and 0.025 μg of pRL-TK (Renilla luciferase plasmids as an internal control. After another 24 hours of transfection, the cells were starved in serum-free medium for 8 hours, pretreated with N^6-benzyladenosine (“N6BA”), or the control compound C5, for 1 hour, and then stimulated with 10 nM human prolactin (hPrl) in the serum-free medium for additional 16 hours. The lysates were assayed for firefly and Renilla luciferase activities using the Dual-Luciferase reporter assay system (Promega). Three independent experiments were carried out in triplicate. The firefly luciferase activity was normalized to the Renilla luciferase activity of the same sample, and the mean was calculated from the parallels. From the mean values of each independent run, the overall mean and its standard deviation (S.D.) were calculated.
# BCR-ABL = biological target: T2, BCR-ABL (Homo sapiens, UniProt P00519); assay: Western blot of BCR-ABL phosphorylation and protein levels in K562 cells; assay type: cell-based; conditions: 5 μM, 3 h
# T2 construct: endogenous in cells; host or cells: K562; the other entry of the earlier key: BCR (P11274, Breakpoint cluster region protein)
# T2 sequence (P00519 with tags, fused parts or gaps): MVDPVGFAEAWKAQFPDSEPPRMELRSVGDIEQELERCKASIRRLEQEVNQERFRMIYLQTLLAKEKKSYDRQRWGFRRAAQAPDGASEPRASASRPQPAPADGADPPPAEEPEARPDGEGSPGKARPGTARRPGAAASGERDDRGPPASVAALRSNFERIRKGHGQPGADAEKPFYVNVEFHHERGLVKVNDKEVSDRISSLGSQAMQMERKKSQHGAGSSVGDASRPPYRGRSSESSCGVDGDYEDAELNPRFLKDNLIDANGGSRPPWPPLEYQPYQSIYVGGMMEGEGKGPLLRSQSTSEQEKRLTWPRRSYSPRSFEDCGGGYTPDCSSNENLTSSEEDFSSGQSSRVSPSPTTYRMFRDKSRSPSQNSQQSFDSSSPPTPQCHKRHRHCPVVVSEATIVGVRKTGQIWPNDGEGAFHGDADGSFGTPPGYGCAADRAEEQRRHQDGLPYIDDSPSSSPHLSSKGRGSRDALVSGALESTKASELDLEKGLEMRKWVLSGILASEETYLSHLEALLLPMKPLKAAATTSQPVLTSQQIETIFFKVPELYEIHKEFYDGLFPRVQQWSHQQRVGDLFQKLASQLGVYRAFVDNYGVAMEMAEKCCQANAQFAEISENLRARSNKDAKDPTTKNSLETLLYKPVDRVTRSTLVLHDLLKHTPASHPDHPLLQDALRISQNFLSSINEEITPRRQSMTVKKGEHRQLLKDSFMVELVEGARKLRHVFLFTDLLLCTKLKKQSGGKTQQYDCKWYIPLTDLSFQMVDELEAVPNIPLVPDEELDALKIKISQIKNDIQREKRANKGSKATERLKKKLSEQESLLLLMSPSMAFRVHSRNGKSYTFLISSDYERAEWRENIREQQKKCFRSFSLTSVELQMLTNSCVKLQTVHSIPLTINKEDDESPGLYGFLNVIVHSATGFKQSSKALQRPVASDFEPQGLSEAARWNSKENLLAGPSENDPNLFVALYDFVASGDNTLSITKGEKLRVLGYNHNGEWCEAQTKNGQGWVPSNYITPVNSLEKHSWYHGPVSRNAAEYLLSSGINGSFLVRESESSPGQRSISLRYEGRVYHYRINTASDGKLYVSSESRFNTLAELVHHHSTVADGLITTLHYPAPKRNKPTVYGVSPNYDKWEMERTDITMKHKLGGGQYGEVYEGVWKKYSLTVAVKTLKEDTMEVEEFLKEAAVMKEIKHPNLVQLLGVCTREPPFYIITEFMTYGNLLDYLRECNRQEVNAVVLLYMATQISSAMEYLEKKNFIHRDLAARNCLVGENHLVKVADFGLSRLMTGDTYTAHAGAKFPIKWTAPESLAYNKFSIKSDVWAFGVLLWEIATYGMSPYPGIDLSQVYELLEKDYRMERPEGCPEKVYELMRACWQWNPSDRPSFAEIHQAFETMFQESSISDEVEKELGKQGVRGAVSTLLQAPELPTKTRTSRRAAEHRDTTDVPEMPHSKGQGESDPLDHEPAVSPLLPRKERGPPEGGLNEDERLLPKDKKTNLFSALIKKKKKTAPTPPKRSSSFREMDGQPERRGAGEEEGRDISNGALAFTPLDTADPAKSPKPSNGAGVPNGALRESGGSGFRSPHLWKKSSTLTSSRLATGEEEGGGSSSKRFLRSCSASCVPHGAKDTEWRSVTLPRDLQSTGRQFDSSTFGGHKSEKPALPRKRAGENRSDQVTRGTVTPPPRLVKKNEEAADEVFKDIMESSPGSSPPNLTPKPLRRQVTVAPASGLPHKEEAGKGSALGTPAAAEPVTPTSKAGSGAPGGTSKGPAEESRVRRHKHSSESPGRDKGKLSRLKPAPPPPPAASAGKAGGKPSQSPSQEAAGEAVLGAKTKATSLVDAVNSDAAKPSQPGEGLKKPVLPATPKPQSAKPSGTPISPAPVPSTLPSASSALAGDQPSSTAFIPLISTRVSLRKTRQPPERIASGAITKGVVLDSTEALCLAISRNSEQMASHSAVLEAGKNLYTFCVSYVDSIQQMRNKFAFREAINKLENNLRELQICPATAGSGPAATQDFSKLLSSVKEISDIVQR
# Protocol: as §1
# K562 parent cell line = assay: Growth of K562 parent cell line, trypan blue viable cell count; assay type: cell-based, human; conditions: 5 μM; 24, 48, 72 and 96 hours
# Protocol: (§5) The K562 parent cell line and an imatinib-resistant K562 line were cultured in the presence of culture medium without any compounds (Ctrl), DMSO (0.1%), the control compound C5 (5 μM) or N6BAP at 5 μM concentration. The cells were harvested at 24, 48, 72 and 96 hours, trypan blue stained and the numbers of viable cells were counted for each time-point.
# [4] = test system: imatinib-resistant K562 line; assay: Growth of imatinib-resistant K562 line, trypan blue viable cell count; assay type: cell-based, human; conditions: 5 μM; 24, 48, 72 and 96 hours
# Protocol: as §5
# KCL22 = assay: Growth of KCL22 parent cell line, trypan blue viable cell count; assay type: cell-based, human; conditions: 5 μM; 24, 48, 72 and 96 hours
# Protocol: (§6) KKCL22 and BV173 parent cell lines, and imatinib-resistant counterpart cell lines, were cultured in the presence culture medium without any compounds (Ctrl), DMSO (0.1%), the control compound C5 (5 μM) or N6BAP at 5 μM concentration. The imatinib-resistant lines are characterizes by the bcr-abl T315I mutation, which provides imatinib resistance. The cells were harvested at 24, 48, 72 and 96 hours, trypan blue stained and the numbers of viable cells were counted for each time-point.
# KCL22 T315I = assay: Growth of imatinib-resistant KCL22 T315I line, trypan blue viable cell count; assay type: cell-based, human; conditions: 5 μM; 24, 48, 72 and 96 hours
# Protocol: as §6
# BV173 = assay: Growth of BV173 parent cell line, trypan blue viable cell count; assay type: cell-based, human; conditions: 5 μM; 24, 48, 72 and 96 hours
# Protocol: as §6
# BV173 T315I = assay: Growth of imatinib-resistant BV173 T315I line, trypan blue viable cell count; assay type: cell-based, human; conditions: 5 μM; 24, 48, 72 and 96 hours
# Protocol: as §6
# [5] = test system: BCR-ABL-driven human leukemic cell lines; assay: Cell cycle progression analysis (data not shown); assay type: cell-based
BCR-ABL protein levels (BCR-ABL),Structure (SMILES),Stat5a dimerization (Stat5a),"phosphorylation of Stat5 (Stat5a/b [1]; indicated concentrations, 3 h or 6 h)",number of viable K562 cells (MTS) (K562 cells),phosphorylation of Stat5 (Stat5a/b [2]),phosphorylation of Stat5 (Stat5a/b [3]),transcriptional activity of Stat5 (Stat5),"phosphorylation of Stat5 (Stat5a/b [1]; 5 μM, 3 h, Western blot anti-pYStat5)",phosphorylation of BCR-ABL (BCR-ABL; anti-phosphotyrosine mAb),growth of the parental K562 line (K562 parent cell line),growth of the imatinib-resistant K562 cell line [4],growth of parental cell line KCL22 (KCL22),growth of imatinib-resistant KCL22 T315I (KCL22 T315I),growth of parental cell line BV173 (BV173),growth of imatinib-resistant BV173 T315I (BV173 T315I),apoptotic death (cell cycle progression analysis) [5]
,"Nc1nc(SCc2cccnc2)[nH]c(=O)c1NC(=O)c1ccco1 [C5, reference compound]",did not inhibit dimerization of Stat5a,,,,,,,,,,,,,,
,"OC[C@H]1O[C@@H](n2cnc3c(NCc4ccccc4)ncnc32)[C@H](O)[C@@H]1O [N6BA, N^6-benzyladenosine]",effectively inhibited Stat5a dimerization,inhibits phosphorylation of Stat5,decreased the number of K562 cells,inhibits phosphorylation of Stat5,inhibits phosphorylation of Stat5,inhibits transcriptional activity of Stat5,,,,,,,,,
did not affect,"O=P(O)(O)OC[C@H]1O[C@@H](n2cnc3c(NCc4ccccc4)ncnc32)[C@H](O)[C@@H]1O [N6BAP, N^6-benzyladenosine-5′-monophosphate]",,,reduces the number of viable K562 human leukemia cells,blocks phosphorylation of Stat5,blocks phosphorylation of Stat5,,blocks phosphorylation of Stat5,did not affect phosphorylation of BCR-ABL,blocked not only the growth of the parental K562 line,blocked the growth of the imatinib-resistant cell line,blocked not only the growth of the parental cell lines,blocked the growth of the corresponding imatinib-resistant cell lines,blocked not only the growth of the parental cell lines,blocked the growth of the corresponding imatinib-resistant cell lines,induced apoptotic death
